For assay [1], the system named is transiently suspended Caco-2 cells. Briefly: Apoptosis of transiently suspended cells during readhesion (annexin V assay). The format is cell-based, human. The following applies: Caco-2 transiently suspended, treated and allowed to readhere. The protocol:
Single cell suspensions were plated at 100,000 cells per well in 24-well plates in media containing DMSO, BAY 11-7082, BAY 11-7085, or MG-132 for 8-24 hours in an incubator. Alternatively, DMSO, BAY 11-7082, BAY 11-7085, or MG-132 were added to cells that were confluent and adherent for several days. The nonadherent cells were aspirated off with the media and spun for 3 minutes at 2,000 rpm in 15 mL polypropylene tubes. The adherent cells were washed twice with PBS, dispersed in trypsin, and spun down for 3 minutes at 2,000 rpm in 15 mL polypropylene tubes. […] 400 μL of binding buffer was added to each tube and the cells were analyzed by flow cytometry immediately. The percent of apoptosis was determined as the percent of annexin V-positive, propidium iodide-negative cells of the total cells counted.
Since trypsin can activate protease-activated receptor-2 in colon cancer cell lines, which then results in increased cell proliferation, (Darmoul et al., “Initiation of human colon cancer cell proliferation by trypsin acting at protease-activated receptor-2,” Br J Cancer 85:772-9, 2001). NF-κB activation was determined in adherent and confluent DLD-1, HCT-116, Caco-2 and HT-29 cells that were removed from plastic dishes by trypsin or scraping.

A further assay deals with JNK. The assay can be described thus: JNK activity (phosphorylation of c-JUN) in colon and pancreatic cancer cell lines. Format: cell-based, human.
The test system of a further assay is NF-κB in HT-29 cells. The assay can be described thus: NF-κB ELISA during readhesion. Format: cell-based, human. The following applies: colon and pancreatic cancer readhesion. The source says: Untreated adherent monolayers (Control) and Jurkat cells treated with TNFα (Jurkat Control) served as controls. The cells were collected and analyzed for NF-κB activation in an ELISA (see Methods). […] The floating and readherent cells were collected and lysed. Aliquots of the cell lysates were used to generate cleaved PARP immunoblots. All lanes contain equal total protein concentrations and the actin blot served as a loading control. The blots shown are typical of duplicate experiments. […] The floating cells were washed away and the adherent cells were then fixed and stained with crystal violet. The cells were lysed in deoxycholate and the intensity of the staining quantified by spectrophotometry. The results are normalized to the controls.
Nuclear lysates were generated, normalized for total protein concentration, and used to determine NF-κB activity in an ELISA kit (Panomics) per the manufacturer's instructions.
For orientation: ELISA stands for enzyme-linked immunosorbent assay.

The test system of the next assay is HCT-116 cells. The assay can be described thus: Intraabdominal seeding model, intraperitoneal injection of colon cancer cells into athymic mice (21 days). The following applies: HCT-116 IP in athymic mice; after 21 days; regardless of vehicle or BAY 11-7085. Format: in vivo, mouse. The source says:
FIG. 6 is a group of photographs showing an intraabdominal seeding model. FIGS. 6A, B, C show tumor implants of the liver of three athymic mice 21 days after receiving intraperitoneal injections of HT-29 cells. The mice were pretreated and treated for a total of 21 days with DMSO twice weekly. […] The mouse was pretreated and treated for a total of 21 days with DMSO twice weekly. FIG. 6E is a micrograph showing tumor invasion through the liver capsule. This section was obtained from the tumor implant from the mouse in FIG. 6A. […] FIG. 6G, (liver), FIG. 6H, (abdominal wall), and FIG. 6I, (intestinal) show tumor implants in three athymic mice 21 days after receiving intraabdominal injections of HCT-116 cells. All of the mice were treated with 5 mg/kg of BAY 11-7085 twice weekly.
HT-29 and HCT-116 cells were harvested in 0.25% trypsin-PBS-EDTA, washed once in media and PBS, and resuspended in PBS at 1 million cells per 200 μL. […] Subcutaneous tumor sizes were determined by measuring the length and width with calipers. […]
During colorectal cancer surgery, seeding of the peritoneal cavity by tumor cells with tumor cell implantation of the peritoneal surfaces can occur. Seeding results from the transient suspension of cancer cells, through a loss of adhesion either naturally ro because of surgical displacement, followed by readhesion to other tissues. […]

Another assay concerns HT-29 cells. The assay can be described thus: One-hour cell adhesion assay (crystal violet). Format: cell-based, human. The following applies: adherent HT-29 pretreated for three days with various concentrations, then one-hour adhesion assay. The source says:
FIG. 3 is a group of graphs that show NF-κB inhibitors cause apoptosis of colon cancer cells. […] The data points represent the average percent of annexin V-positive, propidium iodide-negative cells (of the total cells counted) from triplicate experiments. The error bars represent the standard error of the means. […] The results shown are a graphic representation of individual flow cytometry results expressed as the percentage of cells that were annexin V-positive of those that excluded propidium iodide. […] An immunoblot of the lysates for cleaved PARP was performed. Each lane represents equal total protein concentrations. […] The cells were allowed to adhere to plastic dishes for 1 hour after which they were washed gently in PBS and stained with crystal violet. The crystal violet stained cells were solubilized in deoxycholate and the absorbance detected in a spectrophotometer at 590 nm. The adherent cells were expressed as a fraction of the controls. Each data point represents the average of triplicate experiments and the error bars the standard errors of the means.
Even though BAY 11-7085 induced a loss of cell adhesion, it was important to show whether HT-29 cells were actually susceptible to anoikis.

The record followed here is US20110251135A1, “INHIBITORS OF PERITONEAL SEEDING OF CANCER CELLS” (University of Utah Research Foundation, priority 2008, published 2011).

For `CC(C)(C)c1ccc(S(=O)(=O)/C=C/C#N)cc1` [BAY 11-7085, (2E)-3-[4-(tertiarybutylphenyl)sulfonyl]-2-propenenitrile], the “BAY 11-7085-induced apoptosis during readhesion” value in assay [1] is listed as “moderate increase”. Moreover, the “JNK activity (phosphorylation of c-JUN)” value in the assay with JNK was “readily induced JNK activity”. Also, the “NF-κB inhibitor potency on a molar basis (comparison)” value in the assay with NF-κB in HT-29 cells is given as “more potent NF-κB inhibitor than rosiglitazone”. Besides, in the assay on HCT-116 cells, the “metastases of parietal and visceral peritoneum” value is given as “clear evidence of metastases”. In the assay with HT-29 cells, the cell adhesion result is “significant and rapid inhibition of cell adhesion at high concentrations”.
